From the supplement of paper PMC10307832

Key:
Assay in all cases: relative viability (nuclei count vs DMSO), 5 days (fraction); higher = more cells survive
[1] = compound: N#CC1(c2ccc(NC(=O)c3cccnc3NCc3ccncc3)cc2)CCCC1 [Apatinib] + O=C(CCCCCCC(=O)Nc1ccccc1)NO [Vorinostat] (partner 1 µM)
Summary of the method: (§1)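 Lung cancer cell lines were seeded in 1536-well plates and dosed by pin tool the next day, with either a single drug or a fixed anchor-drug dose combined with five library-drug doses (not always all listed) spaced in √10 steps. Five days later, one step fixed the cells and stained their nuclei (final 0.05% Triton X-100, 1% formaldehyde, 1 ug/ml Hoechst), and nuclei were counted on 4× images. Relative viability is the nuclei count in treated wells divided by the count in vehicle wells, and each value is the median of duplicate plates.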

[2] = compound: N#CC1(c2ccc(NC(=O)c3cccnc3NCc3ccncc3)cc2)CCCC1 [Apatinib] + CS(=O)(=O)CCNCc1ccc(-c2ccc3ncnc(Nc4ccc(OCc5cccc(F)c5)c(Cl)c4)c3c2)o1 [Lapatinib] (partner 2 µM)
Summary of the method: as §1

[3] = compound: CN(C)C(=N)NC(=N)N [Metformin] + N=C(N)NC(=N)NCCc1ccccc1 [Phenformin] (partner 250 µM)
Summary of the method: as §1

[4] = compound: CN(C)C(=N)NC(=N)N [Metformin] + O=C(CCCCCCC(=O)Nc1ccccc1)NO [Vorinostat] (partner 1 µM)
Summary of the method: as §1

Cell Line	relative viability ([1]; first compound 0.08 µM)	relative viability ([1]; first compound 0.253 µM)	relative viability ([1]; first compound 0.8 µM)	relative viability ([1]; first compound 2.53 µM)	relative viability ([1]; first compound 8 µM)	relative viability ([2]; first compound 0.08 µM)	relative viability ([2]; first compound 0.253 µM)	relative viability ([2]; first compound 0.8 µM)	relative viability ([2]; first compound 2.53 µM)	relative viability ([2]; first compound 8 µM)	relative viability ([3]; first compound 10 µM)	relative viability ([3]; first compound 31.62 µM)	relative viability ([3]; first compound 316.23 µM)	relative viability ([3]; first compound 1000 µM)	relative viability ([4]; first compound 10 µM)	relative viability ([4]; first compound 31.62 µM)	relative viability ([4]; first compound 100 µM)	relative viability ([4]; first compound 316.23 µM)	relative viability ([4]; first compound 1000 µM)	relative viability ([3]; first compound 100 µM)
NCI-H2347	0.655	0.569	0.619	0.542	0.557	0.926	0.992	1.02	0.964	0.957	0.384	0.363	0.422	0.404	0.602	0.619	0.71	0.575	0.599	
COR-L 105	1.09	0.795	0.872	0.782	0.805	0.358	0.342	0.354	0.336	0.33	0.727	0.61	0.568	0.494	0.795	0.807	0.895	0.848	0.495	0.65
NCI-H1437	0.854	0.928	0.71	0.554	0.534	0.761	0.841	0.745	0.624	0.537	0.296	0.363	0.343	0.299	1.1	1.34	0.993	0.961	1.01	0.338
ABC-1		1.2	1.07	1.04	1.22	1.03	1.45	1.42	1.14	0.993	0.292	0.244	0.202	0.19		0.953	1.1	1.08	0.332	0.251
SK-LU-1	0.905	0.778	0.776	0.722	0.554	0.939	1.16	1.03	0.715	0.709	0.608	0.532	0.424	0.54	0.723	0.645	0.759	0.667	0.766	0.501
NCI-H1755	0.846	0.7	0.783	0.705	0.586	1.03	1	1.04	1.08	0.722	0.543	0.626	0.613	0.632	0.579	0.629	0.711	0.657	0.763	0.639
NCI-H2405	1.21	1.15	1.06	0.951	1.03	0.959	1.3	1.1	0.975	0.992	0.379	0.362	0.393	0.326		0.991	1.03	1.02	0.587	0.362
NCI-H1993	0.804	0.726	0.948	0.788	0.727	0.824	0.749	0.805	0.866	0.798	0.479	0.481	0.532	0.499	0.585	0.6	0.646	0.608	0.921	0.514
NCI-H322M	0.846	0.846	0.885	0.897	0.885	0.571	0.465	0.57	0.64	0.584	0.839	0.802	0.735	0.746	0.946	0.861	0.945	0.865	0.702	0.809
EMC-BAC-2		0.51	0.432	0.29	0.362	0.954	0.886	0.878	0.877	0.807	0.592	0.519	0.499	0.651	0.474	0.417		0.492	0.37	0.506
NCI-H2228	0.535	0.703	0.538	0.55	0.639	1.01	1.05	0.986	0.835	0.644	0.27	0.213	0.275	0.322	0.843	0.672	0.825	0.597	0.635	0.372
PC-14	0.821	0.755	0.639	0.606	0.547	0.384	0.29	0.283	0.277	0.23	0.72	0.808	0.659	0.697	0.618	0.598	0.567	0.415	0.533	0.77
RERF-LC-KJ	0.625	0.72	0.63	0.695	0.577	0.787	0.851	0.817	0.693	0.698	0.489	0.466	0.428	0.499	0.564	0.745	0.634	0.534	0.612	0.456
NCI-H2085	0.77	0.777	0.711	0.73	0.742	0.726	0.683	0.873	0.619	0.768	0.693	0.729	0.673	0.864	0.733	0.747	0.775	0.788	0.812	0.722
LC-2-ad	0.735	0.753	0.721	0.633	0.665	0.925	0.998	0.947	0.9	0.71		0.636	0.539	0.592		0.64	0.657	0.596	0.803	0.486
NCI-H23	0.696	0.793	0.568	0.491	0.524	1.54	1.2	0.959	1.04	0.905	0.743	0.716	0.729	0.897	0.618	0.574	0.653	0.561	0.848	0.716
NCI-H647	0.596	0.868	0.473	0.669	0.343	1.35	1.13	0.925	1.02	0.858	0.614	0.58	0.521	0.653	0.705	0.5	0.64	0.56	0.588	0.62

Cell Line	relative viability ([1]; first compound 0.08 µM)	relative viability ([1]; first compound 0.253 µM)	relative viability ([1]; first compound 0.8 µM)	relative viability ([1]; first compound 2.53 µM)	relative viability ([1]; first compound 8 µM)	relative viability ([2]; first compound 0.08 µM)	relative viability ([2]; first compound 0.253 µM)	relative viability ([2]; first compound 0.8 µM)	relative viability ([2]; first compound 2.53 µM)	relative viability ([2]; first compound 8 µM)	relative viability ([3]; first compound 10 µM)	relative viability ([3]; first compound 31.62 µM)	relative viability ([3]; first compound 316.23 µM)	relative viability ([3]; first compound 1000 µM)	relative viability ([4]; first compound 10 µM)	relative viability ([4]; first compound 31.62 µM)	relative viability ([4]; first compound 100 µM)	relative viability ([4]; first compound 316.23 µM)	relative viability ([4]; first compound 1000 µM)	relative viability ([3]; first compound 100 µM)
LXF-289	0.813	0.746	0.765	0.637	0.671	0.935	0.894	0.888	0.838	0.875	0.48	0.525	0.509	0.51	0.65	0.661	0.712	0.66	0.729	0.537
PC-3 [JPC-3]		0.756	0.733	0.533	0.799	0.472	0.441	0.444	0.394	0.43	0.437	0.46	0.45	0.478	0.737	0.664		0.85	0.554	0.462
UMC-11	0.403	0.397	0.366	0.349	0.341	1.15	0.917	0.83	0.972	0.901	0.322	0.317	0.312	0.351	0.471	0.452	0.483	0.377	0.406	0.321
H3255	0.768	0.737	0.764	0.74	0.794	0.235	0.227	0.231	0.311	0.286	0.395	0.365	0.338	0.382	0.627	0.921	0.758	0.811	0.929	0.436
NCI-H2170	0.881	0.751	0.792	0.718	0.775	0.307	0.241	0.466	0.271	0.281	0.369	0.434	0.441	0.469	0.55	0.777	0.79	0.813	0.795	0.444
NCI-H1651	0.583	0.522	0.528	0.48	0.577	0.914	0.909	0.709	0.698	0.76	0.42	0.312	0.327	0.373	0.505	0.652	0.568	0.614	0.608	0.371
SK-MES-1	1.18	1.14	1.04	0.961	0.928	0.473	0.473	0.512	0.414	0.502	0.504	0.534	0.495	0.512	0.839	1.03	1.11	0.919	0.99	0.545
NCI-H1355	0.677	0.703	0.616	0.515	0.569	1.06	0.963	0.973	0.923	0.944	0.472	0.412	0.432	0.47	0.597	0.522	0.632	0.589	0.609	0.474
HOP-62	0.613	0.679	0.567	0.476	0.323	0.994		0.945	0.955	0.929	0.486	0.577	0.478	0.593	0.425	0.705	0.699	0.456	0.738	0.527
HCC-366	0.437	0.386	0.329	0.205	0.193	1.07	1.14	0.98	0.979	1.02	0.403	0.679	0.644	0.734	0.201	0.431	0.282	0.326	0.472	0.616
BEN	0.584	0.62	0.609	0.589	0.536	0.604	0.67	0.764	0.578	0.591	0.295	0.292	0.27	0.252	0.56	0.728	0.64	0.494	0.625	0.297
NCI-H520	0.77	0.736	0.708	0.672	0.452	0.981	1.12	0.856	0.767	0.659	1.08	0.892	0.658	0.78	0.748	0.757	0.84	0.714	0.763	0.603
NCI-H2023	0.774	0.673	0.811	0.58	0.483	0.751	0.945	0.911	0.74	0.737	0.396	0.376	0.393	0.354	0.292	0.712	0.354	0.496	0.38	0.408
NCI-H1793	0.948	0.779	0.773	0.522	0.628	0.553	0.616	0.736	0.544	0.604	0.431		0.366	0.562	0.943	0.832	0.727	0.662	1.02	0.403
NCI-H838	0.778	0.784	0.702	0.652	0.722	1.29	1.13	0.998	0.965	0.891	0.709	0.671	0.667	0.749	0.645	0.586	0.675	0.569	0.654	0.661
SW 1573	0.993	1.07	0.702	0.47	0.446	0.958	1.09	1.15	1.09	1.02	0.422	0.387	0.414	0.364	0.724	0.722	0.68	0.701	0.755	0.492
